pIC50: −log10 of the molar value.
Test system: 242566-281-R-J2-PDC complex spheroid viability
Assay: Anticancer human tumor 242566-281-R-J2-PDC patient-derived pancreatic carcinoma cell line growth inhibition [RAS]
Conditions: for viability, T/C: stronger effect = lower value
Outline: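 Multi-cell-type spheroids: tumor cells plus HUVEC endothelial cells and mesenchymal stem cells. RAS-pathway inhibitors were combined with targeted agents, each dosed in half-log steps down from clinical Cmax, or from 10 microM when Cmax was unknown.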

[1] = curve of first compound, second compound 0.000949 µM
[2] = curve of first compound, second compound 0.003 µM
[3] = curve of first compound, second compound 0.00949 µM
[4] = curve of first compound, second compound 0.03 µM
[5] = curve of first compound, second compound 0.0949 µM
[6] = curve of first compound, second compound 0.3 µM
[7] = second compound 0.000949 µM, first compound 0.00316 µM
[8] = second compound 0.000949 µM, first compound 0.01 µM
[9] = second compound 0.000949 µM, first compound 0.0316 µM
[10] = second compound 0.000949 µM, first compound 0.1 µM
[11] = second compound 0.003 µM, first compound 0.00316 µM
[12] = second compound 0.003 µM, first compound 0.01 µM
[13] = second compound 0.003 µM, first compound 0.0316 µM
[14] = second compound 0.003 µM, first compound 0.1 µM
[15] = second compound 0.00949 µM, first compound 0.00316 µM
[16] = second compound 0.00949 µM, first compound 0.01 µM
[17] = second compound 0.00949 µM, first compound 0.0316 µM
[18] = second compound 0.00949 µM, first compound 0.1 µM
[19] = second compound 0.03 µM, first compound 0.00316 µM
[20] = second compound 0.03 µM, first compound 0.01 µM
[21] = second compound 0.03 µM, first compound 0.0316 µM
[22] = second compound 0.03 µM, first compound 0.1 µM
[23] = second compound 0.0949 µM, first compound 0.00316 µM
[24] = second compound 0.0949 µM, first compound 0.01 µM
[25] = second compound 0.0949 µM, first compound 0.0316 µM
[26] = second compound 0.0949 µM, first compound 0.1 µM
[27] = second compound 0.3 µM, first compound 0.00316 µM
[28] = second compound 0.3 µM, first compound 0.01 µM
[29] = second compound 0.3 µM, first compound 0.0316 µM
[30] = second compound 0.3 µM, first compound 0.1 µM
[31] = second compound 0.000949 µM, first compound 0.316 µM
[32] = second compound 0.000949 µM, first compound 1 µM
[33] = second compound 0.003 µM, first compound 0.316 µM
[34] = second compound 0.003 µM, first compound 1 µM
[35] = second compound 0.00949 µM, first compound 0.316 µM
[36] = second compound 0.00949 µM, first compound 1 µM
[37] = second compound 0.03 µM, first compound 0.316 µM
[38] = second compound 0.03 µM, first compound 1 µM
[39] = second compound 0.0949 µM, first compound 0.316 µM
[40] = second compound 0.0949 µM, first compound 1 µM
[41] = second compound 0.3 µM, first compound 0.316 µM
[42] = second compound 0.3 µM, first compound 1 µM
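Further: spheroids exposed to compound for 7 days before readout.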
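Wherever viability, T/C is given: 100% = DMSO vehicle control wells.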

CC(C)n1nc(-c2ccc3oc(N)nc3c2)c2c(N)ncnc21 + CCn1c(-c2cccnc2C(C)OC)c2c3cc(ccc31)N1CCOC(CC(NC(=O)C(C(C)C)N(C)C(=O)C3(F)CCN(C(=O)C#CC(C)(C)N(C)C)CC3)C(=O)N3CCCC(N3)C(=O)OCC(C)(C)C2)C1
pIC50 [1]: 7.36 | pIC50 [2]: 7.35 | pIC50 [3]: 7.60 | pIC50 [4]: 7.56 | pIC50 [5]: 7.69 | pIC50 [6]: 7.74 | viability, T/C (second compound 0.000949 µM, first compound 0.000316 µM): 120% | viability, T/C (second compound 0.000949 µM, first compound 0.001 µM): 86.6% | viability, T/C [7]: 81.6% | viability, T/C [8]: 79.8% | viability, T/C [9]: 62.2% | viability, T/C [10]: 30.4% | viability, T/C (second compound 0.003 µM, first compound 0.000316 µM): 95.6% | viability, T/C (second compound 0.003 µM, first compound 0.001 µM): 80.3% | viability, T/C [11]: 76.2% | viability, T/C [12]: 73% | viability, T/C [13]: 61.6% | viability, T/C [14]: 30.9% | viability, T/C (second compound 0.00949 µM, first compound 0.000316 µM): 102% | viability, T/C (second compound 0.00949 µM, first compound 0.001 µM): 77.9% | viability, T/C [15]: 87.7% | viability, T/C [16]: 75% | viability, T/C [17]: 43.4% | viability, T/C [18]: 33.9% | viability, T/C (second compound 0.03 µM, first compound 0.000316 µM): 89.5% | viability, T/C (second compound 0.03 µM, first compound 0.001 µM): 87.6% | viability, T/C [19]: 92.4% | viability, T/C [20]: 72.7% | viability, T/C [21]: 47.6% | viability, T/C [22]: 37.9% | viability, T/C (second compound 0.0949 µM, first compound 0.000316 µM): 76.1% | viability, T/C (second compound 0.0949 µM, first compound 0.001 µM): 78.8% | viability, T/C [23]: 83.5% | viability, T/C [24]: 67.2% | viability, T/C [25]: 39.5% | viability, T/C [26]: 31.9% | viability, T/C (second compound 0.3 µM, first compound 0.000316 µM): 88% | viability, T/C (second compound 0.3 µM, first compound 0.001 µM): 82% | viability, T/C [27]: 70.5% | viability, T/C [28]: 58.8% | viability, T/C [29]: 42.4% | viability, T/C [30]: 30%

C=CC(=O)N1CCN(c2nc(OCC3CCCN3C)nc3c(F)c(-c4nc(N)cc(C)c4C(F)(F)F)c(Cl)cc23)C(C)C1 (stereo unspecified) + CCn1c(-c2cc(N3CCN(C)CC3)cnc2C(C)OC)c2c3cc(ccc31)-c1csc(n1)CC(NC(=O)C1CC1C)C(=O)N1CCCC(N1)C(=O)OCC(C)(C)C2
pIC50 [1]: < 6.00 | pIC50 [2]: < 6.00 | pIC50 [3]: > 8.50 | pIC50 [4]: > 8.50 | pIC50 [5]: > 8.50 | pIC50 [6]: > 8.50 | viability, T/C [7]: 91.5% | viability, T/C [8]: 90.3% | viability, T/C [9]: 69.8% | viability, T/C [10]: 96.7% | viability, T/C [31]: 86.9% | viability, T/C [32]: 59.6% | viability, T/C [11]: 80.6% | viability, T/C [12]: 62.2% | viability, T/C [13]: 67.8% | viability, T/C [14]: 70.5% | viability, T/C [33]: 76.5% | viability, T/C [34]: 51.7% | viability, T/C [15]: 46.6% | viability, T/C [16]: 39.8% | viability, T/C [17]: 44.3% | viability, T/C [18]: 47.3% | viability, T/C [35]: 43.1% | viability, T/C [36]: 41.3% | viability, T/C [19]: 33.7% | viability, T/C [20]: 32.1% | viability, T/C [21]: 30.3% | viability, T/C [22]: 30.5% | viability, T/C [37]: 23.8% | viability, T/C [38]: 26.9% | viability, T/C [23]: 25.1% | viability, T/C [24]: 22.6% | viability, T/C [25]: 23.1% | viability, T/C [26]: 24.5% | viability, T/C [39]: 20.1% | viability, T/C [40]: 26% | viability, T/C [27]: 21.6% | viability, T/C [28]: 20.6% | viability, T/C [29]: 21.7% | viability, T/C [30]: 20.6% | viability, T/C [41]: 19.8% | viability, T/C [42]: 20.2%

CC(C)NCC(C(=O)N1CCN(c2ncnc3c2C(C)CC3O)CC1)c1ccc(Cl)cc1 (stereo unspecified)
viability, T/C (compound 0.0316 µM): 104% [middle of 4 runs] | viability, T/C (compound 0.1 µM): 106% [middle of 4 runs] | viability, T/C (compound 0.316 µM): 103% [middle of 4 runs] | viability, T/C (compound 1 µM): 101% [middle of 4 runs] | pIC50 (curve of compound): < 5.00

CC1(O)CCCC1n1c(=O)c(C(F)F)cc2cnc(NC3CCN(S(C)(=O)=O)CC3)nc21 (stereo unspecified) + CCn1c(-c2cccnc2C(C)OC)c2c3cc(ccc31)N1CCOC(CC(NC(=O)C(C(C)C)N(C)C(=O)C3(F)CCN(C(=O)C#CC(C)(C)N(C)C)CC3)C(=O)N3CCCC(N3)C(=O)OCC(C)(C)C2)C1
pIC50 [1]: 5.20 | pIC50 [2]: 5.22 | pIC50 [3]: 5.11 | pIC50 [4]: < 5.00 | pIC50 [5]: < 5.00 | pIC50 [6]: 5.20 | viability, T/C [9]: 86.4% | viability, T/C [10]: 70.1% | viability, T/C [31]: 63.5% | viability, T/C [32]: 94.3% | viability, T/C (second compound 0.000949 µM, first compound 3.16 µM): 114% | viability, T/C (second compound 0.000949 µM, first compound 10 µM): 26.9% | viability, T/C [13]: 77.3% | viability, T/C [14]: 63.5% | viability, T/C [33]: 71.9% | viability, T/C [34]: 91.5% | viability, T/C (second compound 0.003 µM, first compound 3.16 µM): 110% | viability, T/C (second compound 0.003 µM, first compound 10 µM): 23.6% | viability, T/C [17]: 84.6% | viability, T/C [18]: 62.4% | viability, T/C [35]: 70.3% | viability, T/C [36]: 86.8% | viability, T/C (second compound 0.00949 µM, first compound 3.16 µM): 95.9% | viability, T/C (second compound 0.00949 µM, first compound 10 µM): 41.2% | viability, T/C [21]: 78.6% | viability, T/C [22]: 82% | viability, T/C [37]: 83.9% | viability, T/C [38]: 85.8% | viability, T/C (second compound 0.03 µM, first compound 3.16 µM): 84.9% | viability, T/C (second compound 0.03 µM, first compound 10 µM): 53.1% | viability, T/C [25]: 69.1% | viability, T/C [26]: 62.8% | viability, T/C [39]: 69.6% | viability, T/C [40]: 90% | viability, T/C (second compound 0.0949 µM, first compound 3.16 µM): 90% | viability, T/C (second compound 0.0949 µM, first compound 10 µM): 54.4% | viability, T/C [29]: 64.8% | viability, T/C [30]: 67.4% | viability, T/C [41]: 71.6% | viability, T/C [42]: 78.9% | viability, T/C (second compound 0.3 µM, first compound 3.16 µM): 101% | viability, T/C (second compound 0.3 µM, first compound 10 µM): 32.6%

Source: PubChem BioAssay AID2060910 (Molecular Pharmacology Branch, DTP, NCI, 2025)
